Target: Cannabinoid receptor 2 (Homo sapiens, UniProt P34972)
Sequence (P34972 whole entry): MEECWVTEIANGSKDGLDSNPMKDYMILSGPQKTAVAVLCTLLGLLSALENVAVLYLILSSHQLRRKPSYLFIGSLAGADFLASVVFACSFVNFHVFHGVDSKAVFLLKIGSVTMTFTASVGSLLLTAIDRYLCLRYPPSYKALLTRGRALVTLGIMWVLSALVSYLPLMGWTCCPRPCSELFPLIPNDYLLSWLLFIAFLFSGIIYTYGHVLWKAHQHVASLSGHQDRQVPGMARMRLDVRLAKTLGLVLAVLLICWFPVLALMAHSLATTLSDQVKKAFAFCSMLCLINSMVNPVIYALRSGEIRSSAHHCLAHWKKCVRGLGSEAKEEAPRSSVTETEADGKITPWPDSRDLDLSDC

For CCCCCc1cc(O)c2c(c1)OC(C)(C)c1ccc(C)cc1-2 [6,6,9-Trimethyl-3-pentyl-6H-benzo[c]chromen-1-ol(Cannabinol)], the EC50 was 60 nM.
